Laboratory results as given in patent US7462600B2, “Macrolides” (Pfizer Inc, priority 2004, dated 2008).
≈ marks a conversion by molar mass, not a printed value. Where two headings read alike, the source gives them in different places.

How the values were obtained:
Format in all cases: cell-based
[1] = test system: Streptococcus pyogenes 1079; test: MIC, microtiter broth dilution (NCCLS M100-S14), S. pyogenes 1079 (ermB)
In short: (§1)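 Panel strains, including macrolide-resistant isolates and their susceptible parents where available, are exposed to serial compound dilutions in microtiter trays. Growth inhibition is scored as MIC under NCCLS M100-S14 standards.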

[2] = test system: Streptococcus pneumoniae 1016; test: MIC, microtiter broth dilution (NCCLS M100-S14), S. pneumoniae 1016 (susceptible)
In short: as §1

[3] = test system: Streptococcus pneumoniae 1095; settings: microtiter broth dilution
In short: as §1

[4] = test system: Streptococcus pneumoniae 1175; settings: microtiter broth dilution
In short: as §1

[5] = test system: Haemophilus influenzae 1218; test: MIC, microtiter broth dilution (NCCLS M100-S14), H. influenzae 1218 (susceptible)
In short: as §1

[6] = S. pneumoniae 1016 (susceptible)
[7] = H. influenzae 1218 (susceptible)

Compound	MIC S. pyogenes 1079 ([1]; S. pyogenes 1079 (ermB))	MIC S. pneumo. 1016 [2, 6]	MIC S. pneumo. 1095 ([3]; S. pneumoniae 1095 (ermB))	MIC S. pneumo. 1175 ([4]; S. pneumoniae 1175 (mefA))	MIC H. influenzae 1218 [5, 7]	MIC S. pyogenes 1079 ([1]; Streptococcus pyogenes 1079)	MIC S. pneumo. 1016 ([2]; Streptococcus pneumoniae 1016)	MIC S. pneumo. 1095 ([3]; Streptococcus pneumoniae 1095)	MIC S. pneumo. 1175 ([4]; Streptococcus pneumoniae 1175)	MIC H. influenzae 1218 ([5]; Haemophilus influenzae 1218)
CCC1OC(=O)C(C)C(=O)C(C)C(OC2OC(C)CC(N(C)C)C2O)C(C)(OC)CC(C)C(=O)C(C)C2N(C3CCN(Cc4n[nH]c5ccccc45)C3)C(=O)OC12C [Example 9.09, 3-descladinosyl-11,12-dideoxy-6-O-methyl-3-oxo-12,11-(oxycarbonyl-(1-((1H-indazol-3-yl)-methyl)-(R)-pyrrolidin-3-yl)-imino)-erythromycin A]	2 µg/mL (≈ 2.46 µM)	<0.06 µg/mL	0.25 µg/mL (≈ 0.308 µM)	0.12 µg/mL (≈ 0.148 µM)	0.12 µg/mL (≈ 0.148 µM)	–	–	–	–	–
CCC1OC(=O)C(C)C(=O)C(C)C(OC2OC(C)CC(N(C)C)C2O)C(C)(OC)CC(C)C(=O)C(C)C2N(C3CN(S(=O)(=O)c4cccc(-c5csnn5)c4)C3)C(=O)OC12C (stereo not drawn) [Example 3.63, 3-descladinosy-11,12-dideoxy-6-O-methyl-3-oxo-12,11-(oxycarbonyl-(1-(3-(1,2,3-thiadiazol-4-yl)benzenesulfonyl)-azetidin-3-yl)-imino)-erythromycin A]	–	–	–	–	–	0.25 µg/mL (≈ 0.28 µM)	<0.06 µg/mL	<0.06 µg/mL	<0.06 µg/mL	<0.06 µg/mL
CCC1OC(=O)C(C)C(=O)C(C)C(OC2OC(C)CC(N(C)C)C2O)C(C)(OC)CC(C)C(=O)C(C)C2N(C3CN(C(=O)c4ccc(-n5cccn5)cc4)C3)C(=O)OC12C (stereo not drawn) [Example 2.13]	–	–	–	–	–	>64.00 µg/mL	<0.06 µg/mL	2 µg/mL (≈ 2.39 µM)	0.12 µg/mL (≈ 0.143 µM)	8 µg/mL (≈ 9.55 µM)
CCC1OC(=O)C(C)C(=O)C(C)C(OC2OC(C)CC(N(C)C)C2O)C(C)(OC)CC(C)C(=O)C(C)C2N(C3CN(Cc4cc(=O)[nH]c5ccc(Cl)cc45)C3)C(=O)OC12C (stereo not drawn) [Example 1.36, (6-chloro-1H-quinolin-2-on-4-yl)methyl]	–	–	–	–	–	8 µg/mL (≈ 9.31 µM)	<0.06 µg/mL	<0.06 µg/mL	0.12 µg/mL (≈ 0.14 µM)	0.5 µg/mL (≈ 0.582 µM)
CCC1OC(=O)C(C)C(=O)C(C)C(OC2OC(C)CC(N(C)C)C2O)C(C)(OC)CC(C)C(=O)C(C)C2N(C3CN(S(=O)(=O)c4ccc(-n5nc(C)c(=O)[nH]c5=O)cc4)C3)C(=O)OC12C (stereo not drawn) [Example 3.14, 4-(4,5-dihydro-6-methyl-3,5-dioxo-1,2,4-triazin-2(3H)-yl)benzenesulfonyl]	–	–	–	–	–	>64.00 µg/mL	<0.06 µg/mL	1 µg/mL (≈ 1.07 µM)	1 µg/mL (≈ 1.07 µM)	1 µg/mL (≈ 1.07 µM)
CCC1OC(=O)C(C)C(=O)C(C)C(OC2OC(C)CC(N(C)C)C2O)C(C)(OC)CC(C)C(=O)C(C)C2N(C3CN(S(=O)(=O)c4c[nH]c(=O)[nH]c4=O)C3)C(=O)OC12C (stereo not drawn) [Example 3.30, 1,2,3,4-tetrahydro-2,4-dioxopyrimidine-5-sulfonyl]	–	–	–	–	–	>64.00 µg/mL	1 µg/mL (≈ 1.19 µM)	>64.00 µg/mL	32 µg/mL (≈ 38 µM)	32 µg/mL (≈ 38 µM)
CCC1OC(=O)C(C)C(=O)C(C)C(OC2OC(C)CC(N(C)C)C2O)C(C)(OC)CC(C)C(=O)C(C)C2N(C3CN(S(=O)(=O)c4cccc5ncccc45)C3)C(=O)OC12C (stereo not drawn) [Example 3.100, 3-descladinosyl-11,12-dideoxy-6-O-methyl-3-oxo-12,11-(oxycarbonyl-(1-(quinoline-5-sulfonyl)-azetidin-3-yl)-imino)-erythromycin A]	–	–	–	–	–	0.125 µg/mL (≈ 0.146 µM)	<0.063 µg/mL	<0.063 µg/mL	<0.063 µg/mL	0.5 µg/mL (≈ 0.582 µM)
CCC1OC(=O)C(C)C(=O)C(C)C(OC2OC(C)CC(N(C)C)C2O)C(C)(OC)CC(C)C(=O)C(C)C2N(C3CN(S(=O)(=O)c4ccc(-c5nncs5)cc4)C3)C(=O)OC12C (stereo not drawn) [Example 3.76, 3-descladinosyl-11,12-dideoxy-6-O-methyl-3-oxo-12,11-(oxycarbonyl-(1-(4-(1,3,4-thiadiazol-2-yl)benzenesulfonyl)-azetidin-3-yl)-imino)-erythromycin A]	–	–	–	–	–	0.12 µg/mL (≈ 0.135 µM)	<0.06 µg/mL	<0.06 µg/mL	<0.06 µg/mL	0.5 µg/mL (≈ 0.56 µM)
CCC1OC(=O)C(C)C(=O)C(C)C(OC2OC(C)CC(N(C)C)C2O)C(C)(OC)CC(C)C(=O)C(C)C2N(CC3CCN(C(=O)c4ccc5ncccc5c4)C3)C(=O)OC12C (stereo not drawn) [13.12]	>64.00 µg/mL	<0.06 µg/mL	>64.00 µg/mL	0.5 µg/mL (≈ 0.588 µM)	4 µg/mL (≈ 4.7 µM)	–	–	–	–	–
